Assay results: the supplement of paper PMC10307832

Key:
Assay in all cases: relative viability (nuclei count vs DMSO), 5 days (fraction); higher = more cells survive
ABC-1 = tested on: ABC-1
Method in brief: (§1)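 After 5 days of treatment, lung cancer cells in 1536-well plates were fixed and stained in a single step (final 0.05% Triton X-100, 1% formaldehyde, 1 ug/ml Hoechst) and their nuclei counted on 4× images. Treatment had been applied by pin tool the day after seeding as one drug alone or as a fixed anchor-drug dose with five library-drug doses (not always all listed) in √10 steps. Relative viability is the nuclei count of treated wells divided by that of vehicle wells, and values are medians of duplicate plates.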

CAL-12T = tested on: CAL-12T
Method in brief: as §1

COR-L 105 = tested on: COR-L 105
Method in brief: as §1

ChaGo-K-1 = tested on: ChaGo-K-1
Method in brief: as §1

EMC-BAC-2 = tested on: EMC-BAC-2
Method in brief: as §1

EPLC-272H = tested on: EPLC-272H
Method in brief: as §1

HCC-15 = tested on: HCC-15
Method in brief: as §1

HCC-78 = tested on: HCC-78
Method in brief: as §1

HOP-62 = tested on: HOP-62
Method in brief: as §1

LXF-289 = tested on: LXF-289
Method in brief: as §1

NCI-H1666 = tested on: NCI-H1666
Method in brief: as §1

Compound: Nc1ccn([C@@H]2O[C@H](CO)[C@@H](O)[C@@H]2O)c(=O)n1 [Cytarabine] + Cc1nc(Nc2ncc(C(=O)Nc3c(C)cccc3Cl)s2)cc(N2CCN(CCO)CC2)n1 [Dasatinib] (partner 0.075 µM)
- relative viability (ABC-1; first compound 0.005 µM): 0.501
- relative viability (ABC-1; first compound 0.01581 µM): 0.492
- relative viability (ABC-1; first compound 0.05 µM): 0.564
- relative viability (ABC-1; first compound 0.1581 µM): 0.473
- relative viability (ABC-1; first compound 0.5 µM): 0.332
- relative viability (CAL-12T; first compound 0.005 µM): 0.302
- relative viability (CAL-12T; first compound 0.01581 µM): 0.306
- relative viability (CAL-12T; first compound 0.05 µM): 0.447
- relative viability (CAL-12T; first compound 0.1581 µM): 0.284
- relative viability (CAL-12T; first compound 0.5 µM): 0.109
- relative viability (COR-L 105; first compound 0.005 µM): 0.314
- relative viability (COR-L 105; first compound 0.01581 µM): 0.311
- relative viability (COR-L 105; first compound 0.05 µM): 0.293
- relative viability (COR-L 105; first compound 0.1581 µM): 0.196
- relative viability (COR-L 105; first compound 0.5 µM): 0.187
- relative viability (ChaGo-K-1; first compound 0.005 µM): 0.518
- relative viability (ChaGo-K-1; first compound 0.01581 µM): 0.347
- relative viability (ChaGo-K-1; first compound 0.05 µM): 0.384
- relative viability (ChaGo-K-1; first compound 0.1581 µM): 0.182
- relative viability (ChaGo-K-1; first compound 0.5 µM): 0.184
- relative viability (EMC-BAC-2; first compound 0.005 µM): 0.344
- relative viability (EMC-BAC-2; first compound 0.01581 µM): 0.278
- relative viability (EMC-BAC-2; first compound 0.05 µM): 0.203
- relative viability (EMC-BAC-2; first compound 0.1581 µM): 0.154
- relative viability (EMC-BAC-2; first compound 0.5 µM): 0.113
- relative viability (EPLC-272H; first compound 0.005 µM): 0.304
- relative viability (EPLC-272H; first compound 0.01581 µM): 0.241
- relative viability (EPLC-272H; first compound 0.05 µM): 0.211
- relative viability (EPLC-272H; first compound 0.1581 µM): 0.113
- relative viability (EPLC-272H; first compound 0.5 µM): 0.0979
- relative viability (HCC-15; first compound 0.005 µM): 0.559
- relative viability (HCC-15; first compound 0.01581 µM): 0.679
- relative viability (HCC-15; first compound 0.05 µM): 0.683
- relative viability (HCC-15; first compound 0.1581 µM): 0.479
- relative viability (HCC-15; first compound 0.5 µM): 0.401
- relative viability (HCC-78; first compound 0.005 µM): 0.585
- relative viability (HCC-78; first compound 0.01581 µM): 0.363
- relative viability (HCC-78; first compound 0.05 µM): 0.27
- relative viability (HCC-78; first compound 0.1581 µM): 0.228
- relative viability (HCC-78; first compound 0.5 µM): 0.208
- relative viability (HOP-62; first compound 0.005 µM): 0.58
- relative viability (HOP-62; first compound 0.01581 µM): 0.531
- relative viability (HOP-62; first compound 0.05 µM): 0.421
- relative viability (HOP-62; first compound 0.1581 µM): 0.157
- relative viability (HOP-62; first compound 0.5 µM): 0.11
- relative viability (LXF-289; first compound 0.005 µM): 0.221
- relative viability (LXF-289; first compound 0.01581 µM): 0.202
- relative viability (LXF-289; first compound 0.05 µM): 0.171
- relative viability (LXF-289; first compound 0.1581 µM): 0.112
- relative viability (LXF-289; first compound 0.5 µM): 0.0684
- relative viability (NCI-H1666; first compound 0.005 µM): 0.773
- relative viability (NCI-H1666; first compound 0.01581 µM): 0.725
- relative viability (NCI-H1666; first compound 0.05 µM): 0.642
- relative viability (NCI-H1666; first compound 0.1581 µM): 0.396
- relative viability (NCI-H1666; first compound 0.5 µM): 0.394
